Measured values reported in US4992449A, “7-(substituted)cycloalkylamino-1 -(substituted)-6-fluoro-1,4-dihydro-4-oxo-3-quinolinecarboxylic acids” (American Cyanamid Company, priority 1990, dated 1991).
≈ marks a conversion by molar mass, not a printed value. Where two headings read alike, the source gives them in different places.

Columns and labels:
Assay in all cases: In vitro antibacterial MIC, agar plate dilution
Format in all cases: cell-based
[1] = test system: Staphylococcus aureus CMC 83-131; settings: CMC83131, Mueller-Hinton agar, 10^4 CFU, 18 hours, 35° C.
Outline: (§1)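 Agar plate dilution on Mueller-Hinton agar, with about 10^4 colony forming units of each organism applied by Steers replicating device. MIC, in mcg/ml, is the lowest compound concentration preventing visible growth after 18 hours at 35° C.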

[2] = test system: Staphylococcus faecalis CMC 83-120; settings: CMC83120, Mueller-Hinton agar, 10^4 CFU, 18 hours, 35° C.
Outline: as §1

[3] = test system: Escherichia coli ATCC 25922; settings: Escherichia coli, ATCC25922, 18 h, read-out: MIC
Outline: as §1

[4] = test system: Pseudomonas aeruginosa VGH 84-3; settings: VGH843, Mueller-Hinton agar, 10^4 CFU, 18 hours, 35° C.
Outline: as §1

[5] = test system: Staphylococcus aureus NEMC 87-59; settings: NEMC8759, 18 h, Table II
Outline: as §1

[6] = test system: Proteus rettgeri IO 83-21; settings: Providencia rettgeri, IO8321, Mueller-Hinton agar, 10^4 CFU, 18 hours, 35° C.
Outline: as §1

[7] = test system: Excherichia coli LL 311; settings: 18 h, Table II, read-out: MIC
Outline: as §1

[8] = test system: Citrobacter diversus K 82-24; settings: Citrobacter koseri, K8224, Mueller-Hinton agar, 10^4 CFU, 18 hours, 35° C.
Outline: as §1

[9] = test system: Staphylococcus SSC 82-56; settings: SSC8256, 18 h, Table II
Outline: as §1

[10] = test system: Excherichia coli CMC 84-11; settings: 18 h, Table II, read-out: MIC
Outline: as §1

[11] = test system: Staphylococcus aureus Smith 1; settings: Staphylococcus aureus, SMITH1, 18 h, Table II, read-out: MIC
Outline: as §1

[12] = test system: Serratia marcescens K 84-18; settings: K8418, 18 h, Table II, read-out: MIC
Outline: as §1

[13] = test system: Klebsiella neumoniae MOR 84-24; settings: MOR8424, Mueller-Hinton agar, 10^4 CFU, 18 hours, 35° C.
Outline: as §1

[14] = Table I, Escherichia coli ATCC 25922, Mueller-Hinton agar, 10^4 CFU, 18 hours, 35° C.
[15] = Table II, Excherichia coli ATCC 25922

Row | Structure (SMILES) | MIC [1] | MIC [2] | MIC [3, 14] | MIC [3, 15] | MIC [4] | MIC [5] | MIC [6] | MIC [7] | MIC [8] | MIC [9] | MIC [10] | MIC [11] | MIC [12] | MIC [13]
1 | N[C@H]1CCC[C@H]1Nc1cc2c(cc1F)c(=O)c(C(=O)O)cn2-c1ccc(F)cc1 (relative stereo) [Example 3] | > 16 µg/mL | > 16 µg/mL | 2 µg/mL (≈ 5.01 µM) | 1 µg/mL (≈ 2.5 µM) | > 16 µg/mL | 4 µg/mL (≈ 10 µM) | 4 µg/mL (≈ 10 µM) | 1 µg/mL (≈ 2.5 µM) | 2 µg/mL (≈ 5.01 µM) | 2 µg/mL (≈ 5.01 µM) | 1 µg/mL (≈ 2.5 µM) | 2 µg/mL (≈ 5.01 µM) | 2 µg/mL (≈ 5.01 µM) | 4 µg/mL (≈ 10 µM)
2 | CCn1cc(C(=O)O)c(=O)c2cc(F)c(N[C@@H]3CCC[C@@H]3N)cc21 (relative stereo) [Example 4, Cis-7-[(2-Aminocyclopentyl)amino]-1-ethyl-6-fluoro-1,4-dihydro-4-oxo-3-quinolinecarboxylic acid] |  | 4 µg/mL (≈ 12 µM) | 0.5 µg/mL (≈ 1.5 µM) | 2 µg/mL (≈ 6 µM) | > 16 µg/mL |  | 2 µg/mL (≈ 6 µM) | 2 µg/mL (≈ 6 µM) | 0.5 µg/mL (≈ 1.5 µM) |  | 2 µg/mL (≈ 6 µM) | 8 µg/mL (≈ 24 µM) | 4 µg/mL (≈ 12 µM) | 2 µg/mL (≈ 6 µM)
